Measurements published in ChEMBL document CHEMBL5729407, “Substituted piperidine compounds and their use” (2022).

Key:
Orexin receptor type 2 = biological target: T1, Orexin receptor type 2 (Homo sapiens, UniProt O43614); assay: (§1) Evaluation of Activity for OX1R and OX2R: HEK293 (human embryonic kidney 293) cells with forced expression of human OX1R (hOX1R) or human OX2R (hOX2R) were seeded in a 384-well microplate (Greiner) at 10,000 per well and cultured for 1 day in high-glucose-DMEM (FujiFilm Corp.—Wako Pure Chemical Industries, Ltd.) containing added 10% FBS ([…]) and 1% Penicillin-Streptomycin (FujiFilm Corp.—Wako Pure Chemical Industries, Ltd.). After removing the medium, 40 μL of assay buffer (20 mM HEPES (Sigma-Aldrich Japan, KK.), Hanks' balanced salt solution (Gibco), 0.1% BSA (Sigma-Aldrich Japan, KK.), 0.1% Pluronic F-127 (Invitrogen)) containing Calcium 4 dye (Molecular Device Corporation) and 2.5 mM probenecid (Sigma-Aldrich Japan, KK.) were added, and the plate was incubated for 60 minutes. After further adding 20 μL of assay buffer, 20 μL of assay buffer containing the test compound was added and reaction was initiated. Change in intracellular calcium ion concentration during the reaction was measured based on the fluorescence intensity ratio in terms of the fluorescence value with wavelength excitation at 480 nm and detection at 540 nm, using FDSS7000 (Hamamatsu Photonics, K.K.). The test compound was dissolved in DMSO to 10 mM, and diluted with assay buffer to a final concentration of from 3×10−11 M to 1×10−7 M (DMSO final concentration of 0.1%). […]; type: cell-based
T1 sequence (O43614 whole entry): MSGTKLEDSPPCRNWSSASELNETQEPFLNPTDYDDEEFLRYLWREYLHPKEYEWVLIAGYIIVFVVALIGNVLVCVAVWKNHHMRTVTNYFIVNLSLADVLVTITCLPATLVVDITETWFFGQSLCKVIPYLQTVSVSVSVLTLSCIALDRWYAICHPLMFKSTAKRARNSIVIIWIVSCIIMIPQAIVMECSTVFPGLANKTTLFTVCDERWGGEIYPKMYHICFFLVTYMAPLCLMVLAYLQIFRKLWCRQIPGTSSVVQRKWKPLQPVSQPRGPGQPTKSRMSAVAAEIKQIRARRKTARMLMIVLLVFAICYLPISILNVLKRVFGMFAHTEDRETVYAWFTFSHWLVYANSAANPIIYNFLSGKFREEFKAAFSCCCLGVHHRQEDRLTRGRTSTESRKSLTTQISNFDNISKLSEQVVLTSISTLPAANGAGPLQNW

[1] = biological target: T2, Orexin/Hypocretin receptor type 1 (Homo sapiens, UniProt O43613); assay: as §1; type: cell-based
T2 sequence (O43613 whole entry): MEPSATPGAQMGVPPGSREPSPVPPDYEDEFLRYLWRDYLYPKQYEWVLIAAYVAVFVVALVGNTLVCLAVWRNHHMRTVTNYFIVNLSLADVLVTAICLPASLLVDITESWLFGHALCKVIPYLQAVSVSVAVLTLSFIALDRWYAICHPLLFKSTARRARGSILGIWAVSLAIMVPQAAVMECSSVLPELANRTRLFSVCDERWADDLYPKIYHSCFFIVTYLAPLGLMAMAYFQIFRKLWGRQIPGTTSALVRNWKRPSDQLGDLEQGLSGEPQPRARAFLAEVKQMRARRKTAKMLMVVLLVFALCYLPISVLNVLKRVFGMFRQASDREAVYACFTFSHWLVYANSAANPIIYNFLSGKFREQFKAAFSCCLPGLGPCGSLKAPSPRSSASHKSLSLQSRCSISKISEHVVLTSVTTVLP

`CO[C@@H]1CN(c2ncc(F)cn2)CC[C@@H]1[C@@H]1C[C@H]2CC[C@@H](C1)N2[C@@H](C(N)=O)C(C)C` was tested, and the EC50 (Orexin receptor type 2) was 3.08 nM and the EC50 [1] was greater than 100 nM.
